Laboratory results from patent US20230391786A1, “cGAS INHIBITORS” (Eli Lilly and Company, priority 2022, published 2023).

Molecular target: recombinant human cGAS (Homo sapiens (Human), UniProt Q8N884)
Test: In vitro inhibition assay of cGAS activity (cGAMP production, RapidFire mass spectrometry)
Assay type: biochemical
Details: 10 nM recombinant human cGAS, 60 nM 75-bp dsDNA, ATP, GTP, room temperature 3 hours, read-out: IC50 (μM), In vitro inhibition assay for Compounds 1-94
Experimental: Expression and Purification of Recombinant cGAS Protein: Insert cDNA encoding full-length of human cGAS into a modified bacterial expression vector containing an in-frame His6-tag. Induce the E. coli strain BL21(DE3) harboring the plasmid with 1 mM IPTG (Isopropyl β-D-1-thiogalactopyranoside) at 18° C. overnight. Purify the His6-tagged cGAS protein over HISpur Ni-NTA resin in the presence of benzonase and RNase followed by Superdex 200 size exclusion chromatography with storage buffer (50 mM Tris-HCl pH 7.5, 300 mM NaCl, 1 mM DTT, 10% glycerol).
In vitro inhibition assay of cGAS activity: Add a 5 μL mixture containing 10 mM Tris-Cl pH 7.5, 50 mM NaCl, 5 mM MgCl2, 1 mM DTT, 0.01% Triton X-100, 60 nM 75-bp dsDNA, […], 50 μM GTP, 10 nM of recombinant human cGAS, and serial dilutions of a test compound in DMSO to a 384-well plate and incubate at room temperature for 3 hours. Quench the reaction by the addition of 100 μL of stop solution containing 0.1% formic acid and 0.1 μM internal standard (3′3′-difluoro cGAMP). Measure the amount of cGAMP produced by RapidFire 365 mass spectrometry and evaluate inhibitory effect of a compound by plotting percent specific inhibition of cGAMP production against log concentration of the test compound. Calculate IC50 values using a 4-parameter non-linear logistic equation (y=(S0+((SInf−S0)/(1+((qAC50/x)^nHill))))).

Sequence of recombinant human cGAS (Q8N884 whole entry): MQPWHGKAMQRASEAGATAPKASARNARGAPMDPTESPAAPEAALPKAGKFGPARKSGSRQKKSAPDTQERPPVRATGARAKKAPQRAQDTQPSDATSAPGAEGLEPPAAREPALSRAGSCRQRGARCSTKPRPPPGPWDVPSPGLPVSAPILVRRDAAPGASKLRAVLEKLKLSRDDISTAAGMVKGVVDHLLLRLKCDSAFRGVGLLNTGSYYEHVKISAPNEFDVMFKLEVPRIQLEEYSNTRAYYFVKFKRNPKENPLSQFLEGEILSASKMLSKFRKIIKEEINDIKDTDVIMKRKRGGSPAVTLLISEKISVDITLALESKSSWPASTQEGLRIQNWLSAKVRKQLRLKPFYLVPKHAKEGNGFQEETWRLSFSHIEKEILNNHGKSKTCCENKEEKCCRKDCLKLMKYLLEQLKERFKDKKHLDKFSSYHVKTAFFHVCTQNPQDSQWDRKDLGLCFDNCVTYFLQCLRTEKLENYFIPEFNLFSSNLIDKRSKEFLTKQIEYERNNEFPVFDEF

In order of falling IC50:
1. N#Cc1c(Cl)ccc2c(-c3cn[nH]c3)c[nH]c12 [Example 93, 6-Chloro-3-(1H-pyrazol-4-yl)-1H-indole-7-carbonitrile]  0.18 µM
2. O=C1NC(CO)Cn2c1c(-c1cn[nH]c1)c1ccc(Cl)c(Cl)c12 (stereo not drawn) [Example 80, 6,7-Dichloro-3-(hydroxymethyl)-10-(1H-pyrazol-4-yl)-3,4-dihydro-2H-pyrazino[1,2-a] indol-1-one]  0.0818 µM
3. CS(=O)(=O)NCCn1cc(-c2cn[nH]c2)c2c(OCC#N)cc(Cl)c(Cl)c21 [Example 84, N-[2-[6,7-Dichloro-4-(cyanomethoxy)-3-(1H-pyrazol-4-yl)indol-1-yl]ethyl]methanesulfonamide]  0.0815 µM
4. CN1CCn2c(c(-c3cn[nH]c3)c3ccc(Cl)c(Cl)c32)C1=O [Example 83, 6,7-Dichloro-2-methyl-10-(1H-pyrazol-4-yl)-3,4-dihydropyrazino[1,2-a]indol-1-one]  0.0754 µM
5. O=C1Cn2c(c(-c3cn[nH]c3)c3ccc(Cl)c(Cl)c32)CCN1CCO [Example 79, 7,8-Dichloro-3-(2-hydroxyethyl)-11-(1H-pyrazol-4-yl)-2,3-dihydro-1H-[1,4]diazepino[1,7-a]indol-4(5H)-one]  0.0753 µM
6. CCOc1cc(Cl)c(Cl)c2c1c(-c1cn[nH]c1)c1n2CCNC1 [Example 90, 6,7-Dichloro-9-ethoxy-10-(1H-pyrazol-4-yl)-1,2,3,4-tetrahydropyrazino[1,2-a]indole]  0.0587 µM
7. CN1CCn2c(c(-c3cn[nH]c3)c3c(NCC#N)cc(Cl)c(Cl)c32)C1=O [Example 86, 2-[[6,7-Dichloro-2-methyl-1-oxo-10-(1H-pyrazol-4-yl)-3,4-dihydropyrazino[1,2-a]indol-9-yl]amino]acetonitrile]  0.0485 µM
8. CC(=O)N1CCOC(CC(=O)N2CCn3c(c(-c4cn[nH]c4)c4ccc(Cl)c(Cl)c43)C2)C1 (stereo not drawn) [Example 82, 2-(4-Acetylmorpholin-2-yl)-1-[6,7-dichloro-10-(1H-pyrazol-4-yl)-3,4-dihydro-1H-pyrazino[1,2-a]indol-2-yl]ethanone]  0.046 µM
9. O=C1Cn2c(c(-c3cn[nH]c3)c3ccc(Cl)c(Cl)c32)CN1CCO [Example 76, 6,7-Dichloro-2-(2-hydroxyethyl)-10-(1H-pyrazol-4-yl)-1,2-dihydropyrazino[1,2-a]indol-3(4H)-one]  0.0452 µM
10. CN1Cc2c(-c3cn[nH]c3)c3ccc(Cl)c(Cl)c3n2CC1=O [Example 75, 6,7-Dichloro-2-methyl-10-(1H-pyrazol-4-yl)-1,2-dihydropyrazino[1,2-a]indol-3(4H)-one]  0.045 µM
11. OC1CCCc2c(-c3cn[nH]c3)c3ccc(Cl)c(Cl)c3n2C1 (stereo not drawn) [Example 78, 3,4-Dichloro-11-(1H-pyrazol-4-yl)-7,8,9,10-tetrahydro-6H-azepino[1,2-a]indol-7-ol]  0.0427 µM
12. CCOc1cc(Cl)c(Cl)c2c1c(-c1cn[nH]c1)c1n2CCN(C(=O)CO)C1 [Example 91, 1-[6,7-Dichloro-9-ethoxy-10-(1H-pyrazol-4-yl)-3,4-dihydro-1H-pyrazino[1,2-a]indol-2-yl]-2-hydroxy-ethanone]  0.0405 µM
13. CN1CCn2c(c(-c3cn[nH]c3)c3c(NCCO)cc(Cl)c(Cl)c32)C1=O [Example 87, 6,7-Dichloro-9-((2-hydroxyethyl)amino)-2-methyl-10-(1H-pyrazol-4-yl)-3,4-dihydropyrazino[1,2-a]indol-1(2H)-one]  0.029 µM
14. N#CCNc1cc(Cl)c(Cl)c2c1c(-c1cn[nH]c1)c1n2CCN(C(=O)CO)C1 [Example 92, 2-[[6,7-Dichloro-2-(2-hydroxyacetyl)-10-(1H-pyrazol-4-yl)-3,4-dihydro-1H-pyrazino[1,2-a]indol-9-yl]amino]acetonitrile]  0.0287 µM
15. CN1CCn2c(c(-c3cn[nH]c3)c3c(OCC#N)cc(Cl)c(Cl)c32)C1=O [Example 85, 2-((6,7-Dichloro-2-methyl-1-oxo-10-(1H-pyrazol-4-yl)-1,2,3,4-tetrahydropyrazino[1,2-a]indol-9-yl)oxy)acetonitrile]  0.0257 µM
16. Nc1nnc(-c2[nH]c3c(Cl)c(Cl)ccc3c2-c2cn[nH]c2)o1 [Example 94, 5-[6,7-Dichloro-3-(1H-pyrazol-4-yl)-1H-indol-2-yl]-1,3,4-oxadiazol-2-amine]  0.0224 µM
17. CN1CCOCC1CC(=O)N1CCn2c(c(-c3cn[nH]c3)c3ccc(Cl)c(Cl)c32)C1 (stereo not drawn) [Example 81, 1-[6,7-Dichloro-10-(1H-pyrazol-4-yl)-3,4-dihydro-1H-pyrazino[1,2-a]indol-2-yl]-2-(4-methylmorpholin-3-yl)ethanone]  0.0223 µM
18. N#CCOc1cc(Cl)c(Cl)c2c1c(-c1cn[nH]c1)c1n2CCNC1 [Example 88, 2-((6,7-Dichloro-10-(1H-pyrazol-4-yl)-1,2,3,4-tetrahydropyrazino[1,2-a]indol-9-yl)oxy)acetonitrile]  0.0219 µM
19. O=C(O)C1CCCc2c(-c3cn[nH]c3)c3ccc(Cl)c(Cl)c3n2C1 (stereo not drawn) [Example 77, 3,4-Dichloro-11-(1H-pyrazol-4-yl)-7,8,9,10-tetrahydro-6H-azepino[1,2-a]indole-7-carboxylic acid]  0.0157 µM
20. N#CCOc1cc(Cl)c(Cl)c2c1c(-c1cn[nH]c1)c1n2CCN(C(=O)CO)C1 [Example 89, 2-((6,7-Dichloro-2-(2-hydroxyacetyl)-10-(1H-pyrazol-4-yl)-1,2,3,4-tetrahydropyrazino[1,2-a]indol-9-yl)oxy)acetonitrile]  0.0112 µM

Same assay, conditions: 10 nM recombinant human cGAS, 60 nM 75-bp dsDNA, ATP, GTP, room temperature 3 hours, read-out: IC50 (μM), In vitro inhibition assay for Compounds 95-348

In order of falling IC50:
1. O=C(NCc1[nH]c2c(Cl)c(Cl)ccc2c1-c1cn[nH]c1)c1cscn1 [Example 104, N-((6,7-Dichloro-3-(1H-pyrazol-4-yl)-1H-indol-2-yl)methyl)thiazole-4-carboxamide]  0.0872 µM
2. N#CCC(=O)Nc1cc(Cl)c(Cl)c2[nH]cc(-c3cn[nH]c3)c12 [Example 176, 2-Cyano-N-[6,7-dichloro-3-(1H-pyrazol-4-yl)-1H-indol-4-yl]acetamide]  0.0864 µM
3. CCS(=O)(=O)NCc1[nH]c2c(Cl)c(Cl)ccc2c1-c1cn[nH]c1 [Example 105, N-((6,7-Dichloro-3-(1H-pyrazol-4-yl)-1H-indol-2-yl)methyl)ethanesulfonamide]  0.0712 µM
4. O=C1Cn2c(c(-c3cn[nH]c3)c3ccc(Cl)c(Cl)c32)CC(CO)N1 (stereo not drawn) [Example 101, 7,8-Dichloro-2-(hydroxymethyl)-11-(1H-pyrazol-4-yl)-2,3-dihydro-1H-[1,4]diazepino[1,7-a]indol-4(5H)-one]  0.0705 µM
5. CC(=O)N1CCOCC1C(=O)N1CCn2c(c(-c3cn[nH]c3)c3ccc(Cl)c(Cl)c32)C1 (stereo not drawn) [Example 109, 1-(3-(6,7-Dichloro-10-(1H-pyrazol-4-yl)-1,2,3,4-tetrahydropyrazino[1,2-a]indole-2-carbonyl)morpholino)ethan-1-one]  0.0698 µM
6. COCCC(OC)C(=O)N1CCn2c(c(-c3cn[nH]c3)c3ccc(Cl)c(Cl)c32)C1 (stereo not drawn) [Example 108, 1-[6,7-Dichloro-10-(1H-pyrazol-4-yl)-3,4-dihydro-1H-pyrazino[1,2-a]indol-2-yl]-2,4-dimethoxy-butan-1-one]  0.0621 µM
7. OCC(O)CNc1cc(Cl)c(Cl)c2[nH]cc(-c3cn[nH]c3)c12 (stereo not drawn) [Example 175, 3-[[6,7-Dichloro-3-(1H-pyrazol-4-yl)-1H-indol-4-yl]amino]propane-1,2-diol]  0.0585 µM
8. CCNC(=O)COCC(=O)N1CCn2c(c(-c3cn[nH]c3)c3ccc(Cl)c(Cl)c32)C1 [Example 179, 2-[2-[6,7-Dichloro-10-(1H-pyrazol-4-yl)-3,4-dihydro-1H-pyrazino[1,2-a]indol-2-yl]-2-oxo-ethoxy]-N-ethyl-acetamide]  0.0585 µM
9. CC(=O)NCC(=O)NCc1[nH]c2c(Cl)c(Cl)ccc2c1-c1cn[nH]c1 [Example 106, 2-Acetamido-N-((6,7-dichloro-3-(1H-pyrazol-4-yl)-1H-indol-2-yl)methyl)acetamide]  0.0561 µM
10. Cn1ncnc1CCC(=O)N1CCn2c(c(-c3cn[nH]c3)c3ccc(Cl)c(Cl)c32)C1 [Example 110, 1-[6,7-Dichloro-10-(1H-pyrazol-4-yl)-3,4-dihydro-1H-pyrazino[1,2-a]indol-2-yl]-3-(2-methyl-1,2,4-triazol-3-yl)propan-1-one]  0.0561 µM
11. CN1CCN(CC(=O)N2CCn3c(c(-c4cn[nH]c4)c4ccc(Cl)c(Cl)c43)C2)C1=O [Example 313, 1-(2-(6,7-Dichloro-10-(1H-pyrazol-4-yl)-3,4-dihydropyrazino[1,2-a]indol-2(1H)-yl)-2-oxoethyl)-3-methylimidazolidin-2-one]  0.0489 µM
12. COCCN1CC(C(=O)N2CCn3c(c(-c4cn[nH]c4)c4ccc(Cl)c(Cl)c43)C2)CC1=O (stereo not drawn) [Example 312, 4-(6,7-dichloro-10-(1H-pyrazol-4-yl)-1,2,3,4-tetrahydropyrazino[1,2-a]indole-2-carbonyl)-1-(2-methoxyethyl)pyrrolidin-2-one]  0.0468 µM
13. CN1CC(=O)N(CC(=O)N2CCn3c(c(-c4cn[nH]c4)c4ccc(Cl)c(Cl)c43)C2)C1=O [Example 311, 3-(2-(6,7-Dichloro-10-(1H-pyrazol-4-yl)-3,4-dihydropyrazino[1,2-a]indol-2(1H)-yl)-2-oxoethyl)-1-methylimidazolidine-2,4-dione]  0.043 µM
